The values below come from patent US20060009403A1, “Dna demethylase antisense and chemotherapy combination” (Centre National De La Recherche Scientifique (CNRS), priority 2002, published 2006).

The test deals with H1299 tumor grafts (human non-small cell lung tumors). The experiment in a line: Growth of H1299 tumor grafts in nude mice after intratumor electrotransfer of antisense plasmid and/or intramuscular bleomycin (Experiments 1 and 2). The test is classed as in vivo. As to conditions: for Number of tumors cured (tumors no longer measurable): cured/total. The procedure:
Two series of experiments were carried out in nude mice weighing 18 to 20 g. The mice were implanted on one side with H1299 tumor grafts (human non-small cell lung tumors) of approximately 20 mm^3. The tumors developed, to reach a volume of 20 to 150 mm^3. The mice were sorted as a function of the size of the tumors and were divided up into homogeneous batches reaching tumor volumes of 50 to 80 mm^3 (n=10 to 13). The mice were anesthetized with a mixture of ketamine and xylazine.
A series of tumors was subjected to no treatment.
Five electrotransfers of 50 μg of plasmid in 80 μl of 150 mM NaCl were carried out in the tumors on the days indicated by the arrows. The plasmid solution was injected longitudinally at the periphery of the tumor using a Hamilton syringe. The lateral faces of the tumors were coated with conducting gel and the tumors were placed between 2 flat stainless steel electrodes 0.4 to 0.7 cm apart. Twenty to 30 seconds after the injection, the plasmids were electrotransferred using a commercial (square) electrical pulse generator (Jouan Electropulser PS 15). Each tumor was subjected to 500 V/cm delivered in 8 pulses lasting 20 msec at a frequency of 1 Hertz.
Twenty-five μg of bleomycin/animal in 50 μl of 150 mM NaCl were injected bilaterally into the tibialis cranialis muscle and, 30 minutes later, each tumor was subjected to 1 electrotransfer as explained above.
Twenty-five μg of bleomycin/animal in 50 μl of 150 mM NaCl were injected bilaterally into the tibialis cranialis muscle and, 30 minutes later, 50 μg of antisense plasmid in 80 μl of 150 mM NaCl were injected and electrotransferred. Four other electrotransfers of 50 μg of antisense plasmid in 80 μl of 150 mM NaCl were subsequently carried out in the tumors on the days indicated by the arrows.
The tumor volumes were measured individually for each tumor using an electronic slide gauge with a digital display, according to the formula (length×width×thickness)/2.
The median of the tumor volumes was reported in the form of a graph, as a function of time.
Five electrotransfers of 80 μl of 150 mM NaCl were carried out in the tumors on the days indicated by the arrows.
Fifty μl of 150 mM NaCl were injected bilaterally into the tibialis cranialis muscle and, 30 minutes later, an electrotransfer of 50 μg of antisense plasmid in 80 μl of 150 mM NaCl was carried out. Four other electrotransfers of 50 μg of antisense plasmid in 80 μl of 150 mM NaCl were subsequently carried out in the tumors on the days indicated by the arrows.
Twenty-five μg of bleomycin/animal in 50 μl of 150 mM NaCl were injected bilaterally into the tibialis cranialis muscle and, 30 minutes later, each tumor was injected with 80 μl of 150 mM NaCl and subjected to an electrotransfer. Four other electrotransfers of 80 μl of 150 mM NaCl were subsequently carried out in the tumors on the days indicated by the arrows.
Twenty-five μg of bleomycin/animal in 50-μl of 150 mM NaCl were injected bilaterally in the tibialis cranialis muscle and, 30 minutes later, an electrotransfer of 50 μg of antisense plasmid in 80 μl of 150 mM NaCl was carried out. Four other electrotransfers of 50 μg of antisense plasmid in 80 μl of 150 mM NaCl were subsequently carried out in the tumors on the days indicated by the arrows.

For bleomycin, where the note is “Experiment 1”, the “Delay in growth, treatment versus untreated” value is reported as 30 days and the “Number of tumors cured (tumors no longer measurable)” value is recorded as 1/13. Also, the “D1000, number of days required to reach a tumor volume of 1000 mm^3” value (Experiment 1 (Table 3)) is listed as “D44 days”. The “Day 1000 mm^3 (median), number of days to reach 1000 mm^3 of tumor volume” value (Experiment 1, H1299 tumors, 25 μg bleomycin i.m. and/or 5 electrotransfers of 50 μg plasmid) is on record as 44.40 days. For the same substance, where the note is “Experiment 2”, the “Delay in growth, treatment versus electro/NaCl” value came to 17 days and the “Number of tumors cured (tumors no longer measurable)” value is on record as 1/11. For the same substance, the “D1000, number of days required to reach a tumor volume of 1000 mm^3” value (Experiment 2 (Table 3)) is recorded as “D38 days”. Further, the “D 1000 mm^3 (median), number of days to reach 1000 mm^3 of tumor volume” value (Experiment 2, H1299 tumors, 25 μg bleomycin i.m. and/or 5 electrotransfers of 50 μg plasmid) is reported as 38.00 days. Moreover, for the setting “H1299 tumors, summary over Experiments 1 and 2”, the “Tumor (complete) cure rate” value was 10%.
